Laboratory results from patent publication US20110130388A1, “PROPHYLACTIC OR THERAPEUTIC AGENT FOR AXIAL MYOPIA” (priority 2008, published 2011).

Legend:
progress of myopia = details: reported in Taiwan; cited from earlier work
axial length extension = details: animal experiments; cited from earlier work
[1] = system: chicken model of form-deprivation myopia; experiment: Axial length suppression test with chicken model of form-deprivation myopia (II), ophthalmic instillation; format: in vivo, chicks (white leghorn); details: hydroxyfasudil 500 nmol/1000 μL, 1 drop (about 5 μl) instilled once daily for 4 weeks, N = 10, * P < 0.05, t-test vs control
From the text: Chicken models of form-deprivation myopia were made in the same manner as in Example 1. That is, chicks (white leghorn) 6 days of age were obtained, and one eye of each chick was covered with a mask hand-made of vinyl tape. The right eye of every chick was covered, and the left eye was used as a control. The chicks were kept under usual breeding conditions.
As a Rho kinase inhibitor, hydroxyfasudil hydrochloride (made by SIGMA; see the above formula (III); hereinafter, abbreviated to “hydroxyfasudil”) was used. Hydroxyfasudil was dissolved in BSS Plus (registered trademark, made by Alcon) so that the concentration was 10 mM, and 50 μL of this solution was diluted with saline to 1000 μL. A hydroxyfasudil solution at a concentration of 500 nmol/1000 μL was thus prepared.
To chicks to which myopia was being induced by the mask, hydroxyfasudil was instilled once daily for 4 weeks. Specifically, 1 drop (about 5 μl) of the above-mentioned hydroxyfasudil solution was instilled with use of a syringe with needle for insulin subcutaneous administration, “Low Dose” 30 G (made by Becton, Dickinson and Company). The instillation was performed to the right eye and the left eye.
To the control, BSS Plus was intravitreally injected once a week (every 7 days). Specifically, the intravitreal injection was performed to a superotemporal site about 3 mm off the corneal ring avoiding cartilage tissue of the lens and sclera with use of the above-mentioned “Low Dose”. The injection to the right eye and the left eye was performed 4 times in total.
Four weeks after the induction of myopia, the chicks were sacrificed. The eyeballs were enucleated and the right eyeballs and the left eyeballs were measured for the size with a caliper. The degree of axial myopia was evaluated based on the axial length and the greatest transverse diameter. The differences of the axial length and the greatest transverse diameter between the right eye and the left eye were calculated to indicate the degree of myopia. Between the group treated with hydroxyfasudil and the control group, the degree of myopia induction was compared.

[2] = system: chicken model of form-deprivation myopia; experiment: Axial length suppression test with chicken model of form-deprivation myopia (I), intravitreal injection; format: in vivo, chicks (white leghorn); details: hydroxyfasudil 20 μL intravitreally once a week (about 1 μM in the eye), four weeks after induction of myopia, N = 7, * P < 0.05 vs control
From the text: Chicks (white leghorn) 6 days of age were obtained, and one eye of each chick was covered with a mask hand-made of vinyl tape. The right eye of every chick was covered, and the left eye was used as a control. The chicks were kept under usual breeding conditions.
As a Rho kinase inhibitor, Y27632 dihydrochloride (made by Wako Pure Chemical Industries; see the above formula (I); hereinafter, abbreviated to “Y27632”) and hydroxyfasudil hydrochloride (made by SIGMA; see the above formula (III); hereinafter, abbreviated to “hydroxyfasudil”) were used. Y27632 was prepared at 50 μM in saline. Hydroxyfasudil was prepared at 1 mM in saline. To the control, saline was administered.
Into the vitreous chambers of the chicks to which myopia was being induced by the mask, Y27632 or hydroxyfasudil was injected once a week (every 7 days). Specifically, to the chicks under anesthesia with Ketalar (registered trademark) and Selactar (registered trademark), injection to a site about 2 mm off the corneal ring was performed with use of a syringe for insulin injection.
To the Y27632 treatment group, 50 μL of the 50 μM Y27632 solution was intravitreally injected. Since the chick eyeball volume is about 1 mL, the final concentration of Y27632 in the eye was about 2.5 μM. To a control group not treated with Y27632, 50 μL of saline was intravitreally injected.
To the hydroxyfasudil treatment group, 20 μL of a diluted hydroxyfasudil solution prepared by diluting 1 μL of the 1 mM hydroxyfasudil solution to 20 μL was intravitreally injected. Since the chick eyeball volume is about 1 mL, the final concentration of hydroxyfasudil in the eye was about 1 μM. To a control group not treated with hydroxyfasudil, 20 μL of saline was intravitreally injected.
Four weeks after the induction of myopia, the chicks were sacrificed. The eyeballs were enucleated and the right eyeball and the left eyeball were measured for the size with a caliper. The degree of axial myopia was evaluated based on the axial length and the greatest transverse diameter. The differences of the axial length and the greatest transverse diameter between the right eye and the left eye were calculated to indicate the degree of myopia. Between the groups treated with the above-mentioned drugs and the respective control groups, the degree of myopia induction was compared.

form-deprivation myopia = details: animal experiment level; cited from earlier work
myopia = details: 2-year clinical trial, children aged 8 to 12; cited from earlier work

CN1[C@@H]2CC[C@H]1C[C@@H](OC(=O)C(CO)c1ccccc1)C2 (stereo partly shown) [Atropine]
Progress of myopia (progress of myopia): statistically significant inhibition of the progress of myopia | Axial length extension (axial length extension): suppresses axial length extension

O=S(=O)(c1cccc2c(O)nccc12)N1CCCNCC1 [Hydroxyfasudil, 1-(1-hydroxy-5-isoquinolinesulfonyl)homopiperazine]
Axial length, average right-left difference [1]: 0.61* mm | Greatest transverse diameter, average right-left difference [1]: 0.91* mm | Axial length, average right-left difference ([1]; listed as hydroxyfasudil): significantly reduced | Greatest transverse diameter, average right-left difference ([1]; listed as hydroxyfasudil): significantly reduced | Axial length, average right-left difference [2]: 0.37* mm | Greatest transverse diameter, average right-left difference [2]: 0.48* mm | Axial length, average right-left difference ([2]; listed as hydroxyfasudil): significantly reduced | Greatest transverse diameter, average right-left difference ([2]; listed as hydroxyfasudil): significantly reduced

CN1CCN(CC(=O)N2c3ccccc3C(=O)Nc3cccnc32)CC1 [Pirenzepine]
Form-deprivation myopia (axial length extension) (form-deprivation myopia): prevented form-deprivation myopia | Accommodative myopia (refraction of the lens) (myopia): significant difference | Axial length (myopia): no significant difference
